Consider 12 molecules from ChEMBL document CHEMBL3232769, “Design and synthesis of conformationally restricted inhibitors of active thrombin activatable fibrinolysis inhibitor (TAFIa)” (Bioorg Med Chem, 2014).

A short description of data set [1]: Oral bioavailability in rat. It is filed as ADME, organism-based. The settings on record: in vivo.
Data set [2] in a line: Lipophilicity, log D of the compound at pH 7.4. The settings on record: buffer.
The target of data set [3] is T1, Carboxypeptidase B2 (Homo sapiens, UniProt Q96IY4).
T1 sequence (Q96IY4 whole entry): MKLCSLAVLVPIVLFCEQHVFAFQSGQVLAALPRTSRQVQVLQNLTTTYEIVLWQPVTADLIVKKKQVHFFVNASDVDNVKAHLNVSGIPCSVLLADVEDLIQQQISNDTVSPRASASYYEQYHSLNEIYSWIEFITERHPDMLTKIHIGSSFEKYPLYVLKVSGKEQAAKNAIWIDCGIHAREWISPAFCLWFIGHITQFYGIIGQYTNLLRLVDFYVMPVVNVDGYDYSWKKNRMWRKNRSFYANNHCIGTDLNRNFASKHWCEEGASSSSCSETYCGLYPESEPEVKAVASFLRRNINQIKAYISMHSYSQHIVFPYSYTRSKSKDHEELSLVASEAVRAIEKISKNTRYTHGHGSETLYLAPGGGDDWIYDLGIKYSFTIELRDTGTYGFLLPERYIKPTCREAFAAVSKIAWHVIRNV
The data set can be described thus: Inhibition of human TAF1a.

Data set [4] has as its target T2, Carboxypeptidase N catalytic chain (Homo sapiens, UniProt P15169).
T2 sequence (P15169 whole entry): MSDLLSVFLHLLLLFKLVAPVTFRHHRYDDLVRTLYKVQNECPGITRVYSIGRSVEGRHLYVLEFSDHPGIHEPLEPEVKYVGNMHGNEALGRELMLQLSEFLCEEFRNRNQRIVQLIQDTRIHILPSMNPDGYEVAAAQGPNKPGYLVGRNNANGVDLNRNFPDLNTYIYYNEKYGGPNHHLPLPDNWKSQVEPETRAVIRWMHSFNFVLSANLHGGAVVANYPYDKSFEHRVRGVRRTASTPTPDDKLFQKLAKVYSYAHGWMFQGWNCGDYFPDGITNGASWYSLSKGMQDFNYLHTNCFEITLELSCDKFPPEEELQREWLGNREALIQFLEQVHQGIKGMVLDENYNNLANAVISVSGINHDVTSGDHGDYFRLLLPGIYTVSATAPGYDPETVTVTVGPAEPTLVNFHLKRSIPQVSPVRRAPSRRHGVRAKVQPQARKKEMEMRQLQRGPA
Briefly: Inhibition of carboxypeptidase N (unknown origin).

Data set [5] addresses T1, Carboxypeptidase B2. Briefly: Inhibition of […] in human plasma assessed as clot lysis.
The nature of data set [6]: Tmax in rat. Conditions: in vivo. It is filed as ADME, organism-based.
Data set [7] has as its target T1, Carboxypeptidase B2. The data set can be described thus: Inhibition of human […] using hippuryl-L-arginine/hippuryl-L-lysine as substrate by liquid chromatographic analysis.
Data set [8] can be described thus: Clearance in rat. The settings on record: in vivo. It is filed as ADME, organism-based.
Data set [9] can be described thus: Oral bioavailability in rat at 20 umol/kg. It counts as ADME, organism-based. Conditions: in vivo.
Data set [10] can be described thus: Oral bioavailability in rat at 6.8 umol/kg. It counts as ADME, organism-based. The settings on record: in vivo.
Data set [11] is described as follows: Clearance in dog. It counts as ADME, organism-based, Canis lupus familiaris. Conditions: in vivo.
Data set [12] deals with Phosphodiesterase 4 (Homo sapiens) (UniProt P27815+Q08499+Q07343+Q08493). Briefly: Inhibition of PDE4 (unknown origin) at 10 uM. It is filed as protein assay.

As a reminder, the bioavailability is the share of a dose that reaches the circulation, judged against a reference dose that is usually intravenous. Usually logD stands for lipophilicity at a set pH, counting ionised and neutral species. Low readings indicate lower lipophilicity, high ones higher lipophilicity. The term IC50 denotes the point on the concentration scale where inhibition reaches its midpoint. `Cl.NCCC[C@@]1(C(=O)O)CCn2c(-c3cccc(-c4ccc(Cl)cc4Cl)c3)cnc2C1`: the bioavailability in data set [1] was 0.9%. For the same molecule, the logD in data set [2] was 2.4. The IC50 in [3] was below 0.041 µM; in [4] it was above 1000 µM; in data set [5], 3.2 µM.

Turning to `NCCCC1(C(=O)O)CCc2c(ncn2CCC2CCC(C3CCCCC3)CC2)C1` (racemic), in data set [2], the logD was 3.6. For the same molecule, the IC50 is 0.124 µM in data set [3], above 1000 µM in data set [4] and 16 µM in data set [5].

The term Tmax denotes the time from dosing to the highest level. The clearance is the rate of elimination divided by the concentration. A low value points to a low capacity for elimination. In the case of `C[C@@H](S)[C@@H](Cc1ccc(N)nc1)C(=O)O`, the bioavailability in data set [1] was found to be 75%. Moreover, the time of peak concentration (Tmax) in data set [6] turned out to be 30 min. Further, the IC50 in data set [7] came to 0.087 µM; in [5], 0.4 µM. Moreover, the clearance in data set [8] was found to be 27 mL/min/kg.

For the molecule `CCCn1cnc(C[C@H](CCCN)C(=O)O)c1` [UK-396,082], the time to peak (Tmax) in data set [6] worked out at 60 min. In addition, the half-inhibitory concentration (IC50) in data set [7] came to 0.45 µM; in data set [5], 5 µM. Also, the bioavailability in data set [9] was 8%. The molecule further had a clearance in [8] of 2 mL/min/kg.

With `CC(C)CCn1cnc2c1CC[C@@](CCCN)(C(=O)O)C2.Cl`, the bioavailability in [1] was 1.4%. The molecule also had a logD in data set [2] below 0. Further, the figures for the IC50 in [3], in data set [4] and in data set [5] were below 0.041 µM, above 1000 µM and 0.1 µM, respectively.

`NCCCC1(C(=O)O)CCc2c(ncn2-c2ccccc2)C1` (racemic): the half-inhibitory concentration (IC50) in data set [3] is 0.585 µM; in data set [4], above 1000 µM; in [5], 7.1 µM.

Take `CCCn1cnc2c1CC[C@@](CCCN)(C(=O)O)C2`: the bioavailability in data set [10] stood at 8%; in [9], 2%. In addition, the Tmax in data set [6] turned out to be 12 min. Also, in data set [2], the logD is below 0. Moreover, the clearance in data set [8] turned out to be 6 mL/min/kg. The IC50 in data set [4] is above 1000 µM.

Turning to `CCCn1cnc(CC(NCCN)C(=O)O)c1` (stereo not drawn), the results for the IC50 in data set [7] and in [5] were 0.62 µM and 8 µM, respectively.

In general, inhibition refers to how much of the control response was suppressed. Higher therefore signals a response far below the control. With `NCCC[C@@]1(C(=O)O)CCc2c(ncn2C2CCCCC2)C1`, the bioavailability in [1] is 1.4%. The clearance was determined as 3.5 mL/min/kg in [11] and 6.2 mL/min/kg in data set [8]. Moreover, the logD in data set [2] is below 0. In addition, the IC50 is 0.117 µM in data set [3], above 1000 µM in [4] and 0.08 µM in [5]. In data set [12], this molecule gave an inhibition of 79%.

`NCCC[C@@]1(C(=O)O)CCn2c(-c3ccccc3)cnc2C1` gave a bioavailability in data set [1] of 4.9%. In addition, in data set [2], the logD was below 0. The molecule further returned a clearance in [8] of 12 mL/min/kg. Moreover, the values for the concentration for half-maximal inhibition (IC50) in data set [3], in data set [4] and in data set [5] were 0.066 µM, above 1000 µM and 1.3 µM, respectively. For the same molecule, in [12], the inhibition was 79%.

For the molecule `CCc1cnc2n1CCC(CCCN)(C(=O)O)C2` (racemic), the results for the IC50 in data set [3], in [4] and in [5] were 2.27 µM, above 1000 µM and above 100 µM, respectively.

On to `NCCC[C@@]1(C(=O)O)CCc2c(ncn2Cc2cccc(-c3ccccc3)c2)C1`, for which the bioavailability in data set [1] came out at 1.7%. The logD in data set [2] was 1. In addition, the IC50 in data set [3] was 0.106 µM; in [4], above 1000 µM; in [5] it was 2.5 µM.
